A short description of the assay: Measurement of oxidation induction time (OIT) by DSC. In kind it is physicochemical. To be noted: with liquid polyisoprene LIR-50, DSC; for Time until onset of oxidation (oxidation induction time) at 150° C.: isothermal 150° C., experiments terminated after 900 minutes; for Time until onset of oxidation (oxidation induction time) at 150° C. / Time until onset of oxidation (oxidation induction time) at 165° C.: O2 atmosphere; for Time until onset of oxidation (oxidation induction time) at 165° C.: isothermal 165° C.; for Time until onset of oxidation (oxidation induction time) at 180° C.: isothermal 180° C., O2 atmosphere 50 ml/min. On the procedure: Measurement of Oxidation Induction Time (OIT)
The compound of formula III) was investigated under laboratory conditions for its potential protective effect as an aging stabilizer by measurement of the oxidation induction time.
To this end the compounds of formula III) and 6PPD, in each case together with a polymer (liquid synthetic polyisoprene (IR), LIR-50, Kuraray, weight average molecular weight distribution Mw=54 000 g/mol, glass transition temperature Tg=−63° C.), were heated at constant temperature at three different temperatures (180° C.; 165° C.; 150° C.) until onset of oxidation.
Heating to 180° C. was carried out as follows: • Starting temperature 35° C., heating to 170° C. at a heating rate of 20 K/min (kelvin per minute), heating to 180° C. at a heating rate of 1 K/min; purge gas: nitrogen (N2), volume flow 50 ml/min).
The specimen was kept under isothermal conditions at 180° C. under an N2 atmosphere for 5 minutes and the atmosphere was then switched to an O2 atmosphere (volume flow 50 ml/min).
The heating to 165° C. was carried out analogously by first heating to 155° C. at a heating rate of 20 K/min (kelvin per minute) and then heating to 165° C. at a heating rate of 1 K/min.
The heating to 150° C. was carried out analogously by first heating to 140° C. at a heating rate of 20 K/min (kelvin per minute) and then heating to 150° C. at a heating rate of 1 K/min.
Oxidation was determined over one peak using DSC (differential scanning calorimetry).
The time in minutes until oxidation was measured in each case.
Background: Differential scanning calorimetry records heat flow against a reference as temperature is scanned.

Structures are written as SMILES. A value given as a limit tells only on which side of the number the result lay.

Regarding `CC(C)CC(C)Nc1ccc(Nc2ccccc2)cc1` (stereo not drawn) [Formula 6PPD, N-(1,3-dimethylbutyl)-N′-phenyl-p-phenylenediamine], the “Time until onset of oxidation (oxidation induction time) at 150° C.” value is on record as more than 900 min, the “Time until onset of oxidation (oxidation induction time) at 165° C.” value was 356 ± 10 min and the “Time until onset of oxidation (oxidation induction time) at 180° C.” value amounted to 116 ± 10 min.

On to `CC(C)CC(C)Nc1ccc2c(c1)C(=O)Nc1ccccc1N2` (stereo not drawn) [Formula III), 2-(1,3-dimethylbutylamino)-5,10-dihydro-dibenzo[b,e][1,4]diazepin-11-one], for which the “Time until onset of oxidation (oxidation induction time) at 150° C.” value is recorded as more than 900 min, the “Time until onset of oxidation (oxidation induction time) at 165° C.” value is listed as 459 ± 10 min and the “Time until onset of oxidation (oxidation induction time) at 180° C.” value is reported as 169 ± 10 min.

Values taken from patent US20250250241A1, “COMPOUND, PREPARATION AND USE THEREOF IN RUBBER BLENDS AND VEHICLE TIRES, AS AN ANTI-AGING AGENT, ANTIOXIDANT, ANTIOXIDANT AND/OR COLORING AGENT” (Continental Reifen Deutschland GmbH, priority 2022, published 2025).
